pKi: −log10 of the molar value.
Molecular target: T1, human GlyT1c transporter (Homo sapiens, UniProt P48067)
T1 construct: expressed in transfected cells; host or cells: CHO cells (recombinant; line hGlyT1c_5_CHO is named for the uptake assay)
T1 sequence (P48067 1-706): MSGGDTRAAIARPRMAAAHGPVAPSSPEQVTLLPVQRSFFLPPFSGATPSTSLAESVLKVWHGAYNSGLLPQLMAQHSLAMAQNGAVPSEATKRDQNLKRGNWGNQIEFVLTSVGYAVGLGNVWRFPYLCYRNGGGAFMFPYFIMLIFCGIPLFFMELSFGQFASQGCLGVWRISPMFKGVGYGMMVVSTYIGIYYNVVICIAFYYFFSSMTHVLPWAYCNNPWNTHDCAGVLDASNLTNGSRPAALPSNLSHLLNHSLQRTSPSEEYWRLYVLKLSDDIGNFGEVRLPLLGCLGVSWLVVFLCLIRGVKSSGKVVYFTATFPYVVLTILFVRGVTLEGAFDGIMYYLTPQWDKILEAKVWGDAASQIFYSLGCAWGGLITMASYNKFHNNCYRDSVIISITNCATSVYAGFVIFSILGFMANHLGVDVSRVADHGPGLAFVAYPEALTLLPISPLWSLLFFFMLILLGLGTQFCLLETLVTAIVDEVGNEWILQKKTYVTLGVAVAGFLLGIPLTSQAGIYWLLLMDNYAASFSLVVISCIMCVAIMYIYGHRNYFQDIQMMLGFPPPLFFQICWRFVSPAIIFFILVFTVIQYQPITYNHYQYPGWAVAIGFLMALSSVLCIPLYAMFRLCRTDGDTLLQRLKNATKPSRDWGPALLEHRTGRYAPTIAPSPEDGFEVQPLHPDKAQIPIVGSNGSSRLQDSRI
Assay: Radioligand binding assay using recombinant CHO cell membranes expressing human GlyT1
Settings: radioligand binding to human GlyT1c transporter-expressing membranes
From the text: 2. Radioligand binding assays using recombinant CHO cell membranes expressing human GlyT1: […]

pKi	SMILES
≥ 5.00	COc1ccc(S(=O)(=O)N2C[C@@H](NC(=O)c3cccc(C(F)(F)F)c3Cl)[C@H](c3ccccc3)C2)cc1 (relative stereo) [Example 136, 2-chloro-N-{trans-1-[(4-methoxyphenyl)sulfonyl]-4-phenylpyrrolidin-3-yl}-3-(trifluoromethyl)benzamide]
≥ 5.00	COc1ccc(S(=O)(=O)N2C[C@@H](Nc3cccc(C#N)c3)[C@H](c3ccccc3)C2)cc1 (relative stereo) [Example 137, 3-({trans-1-[(4-methoxyphenyl)sulfonyl]-4-phenylpyrrolidin-3-yl}amino)benzonitrile]
≥ 5.00	O=C(N[C@@H]1CN(S(=O)(=O)c2ccc(C(F)(F)F)cc2)C[C@H]1c1ccccc1)c1cc(Cl)cc(Cl)c1 (relative stereo) [Example 142, 3,5-dichloro-N-[trans-4-phenyl-1-{[4-(trifluoromethyl)phenyl]sulfonyl}pyrrolidin-3-yl]benzamide]
≥ 5.00	O=C(N[C@@H]1CN(S(=O)(=O)c2ccc(C(F)(F)F)cc2)C[C@H]1c1ccccc1)c1cccc(C(F)(F)F)c1Cl (relative stereo) [Example 143, 2-chloro-N-[trans-4-phenyl-1-{[4-(trifluoromethyl)phenyl]sulfonyl}pyrrolidin-3-yl]-3-(trifluoromethyl)benzamide]
< 5.00	N#Cc1cccc(N[C@@H]2CN(S(=O)(=O)c3ccc(C(F)(F)F)cc3)C[C@H]2c2ccccc2)c1 (relative stereo) [Example 144, 3-{[trans-4-phenyl-1-{[4-(trifluoromethyl)phenyl]sulfonyl}pyrrolidin-3-yl]amino}benzonitrile]
≥ 5.00	Cn1cnc(S(=O)(=O)N2C[C@@H](NCc3ccccc3)[C@H](c3ccc(F)cc3)C2)c1 (relative stereo) [Example 148, trans-N-benzyl-4-(4-fluorophenyl)-1-[(1-methyl-1H-imidazol-4-yl)sulfonyl]pyrrolidin-3-amine]
≥ 7.00	Cn1cnc(S(=O)(=O)N2C[C@@H](NCc3cccc(C(F)(F)F)c3Cl)[C@H](c3ccc(F)cc3)C2)c1 (relative stereo) [Example 149, trans-N-[2-chloro-3-(trifluoromethyl)benzyl]-4-(4-fluorophenyl)-1-[(1-methyl-1H-imidazol-4-yl)sulfonyl]pyrrolidin-3-amine]
≥ 9.00	Cn1cnc(S(=O)(=O)N2C[C@@H](NCc3ccc(C(F)(F)F)cc3Cl)[C@H](c3ccc(F)cc3)C2)c1 (relative stereo) [Example 150, trans-N-[2-chloro-4-(trifluoromethyl)benzyl]-4-(4-fluorophenyl)-1-[(1-methyl-1H-imidazol-4-yl)sulfonyl]pyrrolidin-3-amine]
≥ 7.00	Cn1cnc(S(=O)(=O)N2C[C@@H](NCc3ccc(C(F)(F)F)c(Cl)c3)[C@H](c3ccc(F)cc3)C2)c1 (relative stereo) [Example 151, trans-N-[3-chloro-4-(trifluoromethyl)benzyl]-4-(4-fluorophenyl)-1-[(1-methyl-1H-imidazol-4-yl)sulfonyl]pyrrolidin-3-amine]
≥ 6.00	Cn1cnc(S(=O)(=O)N2C[C@@H](NCc3cccc(C#N)c3)[C@H](c3ccc(F)cc3)C2)c1 (relative stereo) [Example 152, 3-[({trans-4-(4-fluorophenyl)-1-[(1-methyl-1H-imidazol-4-yl)sulfonyl]pyrrolidin-3-yl}amino)methyl]benzonitrile]
≥ 6.00	Cc1ccccc1CN[C@@H]1CN(S(=O)(=O)c2cn(C)cn2)C[C@H]1c1ccc(F)cc1 (relative stereo) [Example 153, trans-4-(4-fluorophenyl)-N-(2-methylbenzyl)-1-[(1-methyl-1H-imidazol-4-yl)sulfonyl]pyrrolidin-3-amine]
≥ 7.00	Cc1ccc(CN[C@@H]2CN(S(=O)(=O)c3cn(C)cn3)C[C@H]2c2ccc(F)cc2)cc1 (relative stereo) [Example 155, trans-4-(4-fluorophenyl)-N-(4-methylbenzyl)-1-[(1-methyl-1H-imidazol-4-yl)sulfonyl]pyrrolidin-3-amine]
≥ 7.00	Cn1cnc(S(=O)(=O)N2C[C@@H](NCc3ccc(F)cc3)[C@H](c3ccc(F)cc3)C2)c1 (relative stereo) [Example 156, trans-N-(4-fluorobenzyl)-4-(4-fluorophenyl)-1-[(1-methyl-1H-imidazol-4-yl)sulfonyl]pyrrolidin-3-amine]
≥ 5.00	Cn1cnc(S(=O)(=O)N2C[C@H](c3ccccc3)[C@H](NCc3ccccc3)C2)c1 (relative stereo) [Example 157, (cis)-N-benzyl-1-[(1-methyl-1H-imidazol-4-yl)sulfonyl]-4-phenylpyrrolidin-3-amine]
≥ 7.00	Cn1cnc(S(=O)(=O)N2C[C@@H](Nc3ccc(F)c(F)c3)[C@H](c3ccc(F)cc3)C2)c1 (relative stereo) [Example 158, trans-N-(3,4-difluorophenyl)-4-(4-fluorophenyl)-1-[(1-methyl-1H-imidazol-4-yl)sulfonyl]pyrrolidin-3-amine]
≥ 6.00	Cn1cnc(S(=O)(=O)N2C[C@@H](Nc3ccc(Cl)c(Cl)c3)[C@H](c3ccc(F)cc3)C2)c1 (relative stereo) [Example 161, trans-N-(3,4-dichlorophenyl)-4-(4-fluorophenyl)-1-[(1-methyl-1H-imidazol-4-yl)sulfonyl]pyrrolidin-3-amine]
≥ 6.00	Cn1cnc(S(=O)(=O)N2C[C@@H](Nc3ccc(Cl)c(F)c3)[C@H](c3ccc(F)cc3)C2)c1 (relative stereo) [Example 162, trans-N-(4-chloro-3-fluorophenyl)-4-(4-fluorophenyl)-1-[(1-methyl-1H-imidazol-4-yl)sulfonyl]pyrrolidin-3-amine]
≥ 5.00	Cn1cnc(S(=O)(=O)N2C[C@@H](Nc3cc(F)ccc3F)[C@H](c3ccc(F)cc3)C2)c1 (relative stereo) [Example 164, trans-N-(2,5-difluorophenyl)-4-(4-fluorophenyl)-1-[(1-methyl-1H-imidazol-4-yl)sulfonyl]pyrrolidin-3-amine]
≥ 6.00	Cn1cnc(S(=O)(=O)N2C[C@@H](Nc3ccc(F)cc3F)[C@H](c3ccc(F)cc3)C2)c1 (relative stereo) [Example 165, trans-N-(2,4-difluorophenyl)-4-(4-fluorophenyl)-1-[(1-methyl-1H-imidazol-4-yl)sulfonyl]pyrrolidin-3-amine]
≥ 6.00	Cn1cnc(S(=O)(=O)N2C[C@@H](Nc3ccc(F)c(F)c3F)[C@H](c3ccc(F)cc3)C2)c1 (relative stereo) [Example 166, trans-4-(4-fluorophenyl)-1-[(1-methyl-1H-imidazol-4-yl)sulfonyl]-N-(2,3,4-trifluorophenyl)pyrrolidin-3-amine]
≥ 7.00	Cn1cnc(S(=O)(=O)N2C[C@@H](Nc3cccc(C(F)(F)F)c3F)[C@H](c3ccc(F)cc3)C2)c1 (relative stereo) [Example 167, trans-4-(4-fluorophenyl)-N-[2-fluoro-3-(trifluoromethyl)phenyl]-1-[(1-methyl-1H-imidazol-4-yl)sulfonyl]pyrrolidin-3-amine]
≥ 7.00	Cn1cnc(S(=O)(=O)N2C[C@@H](Nc3cc(F)cc(C(F)(F)F)c3)[C@H](c3ccc(F)cc3)C2)c1 (relative stereo) [Example 168, trans-4-(4-fluorophenyl)-N-[3-fluoro-5-(trifluoromethyl)phenyl]-1-[(1-methyl-1H-imidazol-4-yl)sulfonyl]pyrrolidin-3-amine]
≥ 5.00	Cn1cnc(S(=O)(=O)N2C[C@@H](Nc3cc(C(F)(F)F)ccc3F)[C@H](c3ccc(F)cc3)C2)c1 (relative stereo) [Example 169, trans-4-(4-fluorophenyl)-N-[2-fluoro-5-(trifluoromethyl)phenyl]-1-[(1-methyl-1H-imidazol-4-yl)sulfonyl]pyrrolidin-3-amine]
≥ 7.00	CC(C)c1cccc(N[C@@H]2CN(S(=O)(=O)c3cn(C)cn3)C[C@H]2c2ccc(F)cc2)c1 (relative stereo) [Example 170, trans-4-(4-fluorophenyl)-1-[(1-methyl-1H-imidazol-4-yl)sulfonyl]-N-[3-(propan-2-yl)phenyl]pyrrolidin-3-amine]

SMILES	pKi
COc1ccc(S(=O)(=O)N2C[C@@H](NC(=O)c3cc(Cl)cc(Cl)c3)[C@H](c3ccccc3)C2)cc1 (relative stereo) [Example 135]	< 5.00
Cn1cnc(S(=O)(=O)N2C[C@@H](Nc3ccc(F)c(Cl)c3)[C@H](c3ccc(F)cc3)C2)c1 (relative stereo) [Example 160, trans-N-(3-chloro-4-fluorophenyl)-4-(4-fluorophenyl)-1-[(1-methyl-1H-imidazol-4-yl)sulfonyl]pyrrolidin-3-amine]	≥ 8.00
Cn1cnc(S(=O)(=O)N2C[C@@H](Nc3cccc(F)c3F)[C@H](c3ccc(F)cc3)C2)c1 (relative stereo) [Example 163, trans-N-(2,3-difluorophenyl)-4-(4-fluorophenyl)-1-[(1-methyl-1H-imidazol-4-yl)sulfonyl]pyrrolidin-3-amine]	≥ 6.00

Source: patent publication EP2970215B1, “PYRROLIDINE DERIVATIVES, PHARMACEUTICAL COMPOSITIONS CONTAINING THEM, AND THEIR USE IN THERAPY” (AbbVie Deutschland GmbH & Co. KG, priority 2013, dated 2014)
